According to US9555038B2, “Heterocycle-substituted tetracyclic compounds and methods of use thereof for the treatment of viral diseases” (Merck Sharp & Dohme Corp., priority 2013, dated 2017):
Read-outs that look alike come from different tables or passages of the source.

Legend:
[1] = system: HCV replicon 1AQ30D; experiment: Cell-based HCV Replicon Assay B, replicon 1AQ30D
Method in brief: (§1)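 Replicon cells seeded in 5% FBS; compounds added 24 h later, then 3 days' incubation. Replicon RNA quantified by real-time RT-PCR with genotype-specific primers/probes (NS5B amplicon for 1b). EC50 = concentration raising CT by 1 over projected baseline.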

[2] = system: HCV replicon 1A; experiment: Cell-based HCV Replicon Assay A, replicon 1A
Method in brief: (§2)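 Replicon cells were seeded at 2000 cells/well with test compound in 10 serial dilutions, starting at 333.3 nM to 1.667 nM, in 0.5% DMSO and 5% FBS. On day 3, cells were washed and lysed, and replicon RNA was quantified by multiplex TaqMan RT-PCR normalised to cyclophilin.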

[3] = system: HCV replicon 2B; experiment: Cell-based HCV Replicon Assay A, replicon 2B
Method in brief: as §2

[4] = system: HCV replicon 1B; experiment: Cell-based HCV Replicon Assay B, replicon 1B
Method in brief: as §1

[5] = system: HCV replicon 1AY93H; experiment: Cell-based HCV Replicon Assay A, replicon 1AY93H; settings: read-out: 1A Y93H IC50, replicon 1AY93H
Method in brief: as §2

[6] = read-out: 1A Q30D IC50, replicon 1AQ30D
[7] = Hepatitis C virus, read-out: 1A Q30D IC50 (nM), replicon 1AQ30D

| SMILES | IC50 [1, 6] [nM] | IC50 [2] [pM] | IC50 ([3]; read-out: 2B IC50, replicon 2B) [nM] | IC50 [4] [pM] | IC50 [5] [pM] | IC50 ([2]; Hepatitis C virus) [pM] | IC50 ([4]; Hepatitis C virus) [pM] | IC50 [1, 7] [nM] | IC50 ([3]; Hepatitis C virus, read-out: 2B IC50 (nM), replicon 2B) [nM] |
| --- | --- | --- | --- | --- | --- | --- | --- | --- | --- |
| CCC(CC)c1ncc(C2Oc3cc(-c4cnc([C@@H]5CCCN5C(=O)[C@@H](NC(=O)OC)C(C)C)[nH]4)cc(F)c3-c3cc4cc(-c5cnc([C@@H]6CCCN6C(=O)C(NC(=O)OC)C6CCOC(C)(C)C6)[nH]5)ccc4n32)s1 (single isomer, unassigned) [Compound 445] | 0.949 | 2.8 | 0.096 | 4.6 | 107 |  |  |  |  |
| COC(=O)NC(C(=O)N1CCC[C@H]1c1ncc(-c2ccc3c(c2)cc2n3C(c3cnc(C4(C)CCCC4)s3)Oc3cc(-c4cnc([C@@H]5CCCN5C(=O)[C@@H](NC(=O)OC)C(C)C)[nH]4)cc(F)c3-2)[nH]1)C1CCOC(C)(C)C1 (single isomer, unassigned) [Compound 446] | 0.034 |  | 0.005 |  | 4 | 1.8 | 3.4 |  |  |
| COC(=O)NC(C(=O)N1CCC[C@H]1c1ncc(-c2ccc3c(c2)cc2n3C(c3cnc(C4(C)CCCC4)s3)Oc3cc(-c4cnc([C@@H]5CCCN5C(=O)[C@@H](NC(=O)OC)C(C)C)[nH]4)cc(F)c3-2)[nH]1)C1CCOC(C)(C)C1 (single isomer, unassigned) [Compound 447] | 0.607 | 2.8 | 0.059 | 3.3 | 259 |  |  |  |  |
| COC(=O)NC(C(=O)N1CCC[C@H]1c1ncc(-c2ccc3c(c2)cc2n3C(c3cnc(C4CCOCC4)s3)Oc3cc(-c4cnc([C@@H]5CCCN5C(=O)[C@@H](NC(=O)OC)C(C)C)[nH]4)cc(F)c3-2)[nH]1)C1CCOC(C)(C)C1 (single isomer, unassigned) [Compound 448] | 0.113 |  | 0.011 |  | 13 | 4.7 | 6 |  |  |
| COC(=O)NC(C(=O)N1CCC[C@H]1c1ncc(-c2ccc3c(c2)cc2n3C(c3cnc(C4CCOCC4)s3)Oc3cc(-c4cnc([C@@H]5CCCN5C(=O)[C@@H](NC(=O)OC)C(C)C)[nH]4)cc(F)c3-2)[nH]1)C1CCOC(C)(C)C1 (single isomer, unassigned) [Compound 449] | 0.737 | 4.3 | 0.044 | 3.4 | 64 |  |  |  |  |
| COC(=O)N[C@H](C(=O)N1CCC[C@H]1c1ncc(-c2cc(F)c3c(c2)OC(c2cnc(C4(C)CC4)s2)n2c-3cc3cc(-c4cnc([C@@H]5C[C@H]6C[C@H]6N5C(=O)[C@@H](NC(=O)OC)C(C)C)[nH]4)ccc32)[nH]1)C(C)C (single isomer, unassigned) [Compound 452] | 0.093 |  | 0.04 |  | 4 | 2.7 | 2.5 |  |  |
| COC(=O)N[C@H](C(=O)N1CCC[C@H]1c1ncc(-c2cc(F)c3c(c2)OC(c2cnc(C4(C)CC4)s2)n2c-3cc3cc(-c4cnc([C@@H]5C[C@H]6C[C@H]6N5C(=O)[C@@H](NC(=O)OC)C(C)C)[nH]4)ccc32)[nH]1)C(C)C (single isomer, unassigned) [Compound 453] | 2.14 | 2.3 | 0.65 | 2 | 210 |  |  |  |  |
| COC(=O)N[C@H](C(=O)N1CCC[C@H]1c1ncc(-c2cc(F)c3c(c2)OC(c2cnc(C4(C)CCCC4)s2)n2c-3cc3cc(-c4cnc([C@@H]5C[C@H]6C[C@H]6N5C(=O)[C@@H](NC(=O)OC)C(C)C)[nH]4)ccc32)[nH]1)C(C)C (single isomer, unassigned) [Compound 454] |  |  |  |  | 2 | 2.3 | 3.1 | 0.047 | 0.052 |
| COC(=O)NC(C(=O)N1CCC[C@H]1c1ncc(-c2ccc3c(c2)cc2n3C(c3cnc(C4(C)CC4)s3)Oc3cc(-c4cnc([C@@H]5CCCN5C(=O)[C@@H](NC(=O)OC)C(C)C)[nH]4)cc(F)c3-2)[nH]1)C1CCOC(C)(C)C1 (single isomer, unassigned) [Compound 457] | 0.07 |  | 0.005 |  | 7 | 3.3 | 3.6 |  |  |
| COC(=O)NC(C(=O)N1CCC[C@H]1c1ncc(-c2ccc3c(c2)cc2n3C(c3cnc(C4(C)CC4)s3)Oc3cc(-c4cnc([C@@H]5CCCN5C(=O)[C@@H](NC(=O)OC)C(C)C)[nH]4)cc(F)c3-2)[nH]1)C1CCOC(C)(C)C1 (single isomer, unassigned) [Compound 458] | 0.024 | 3 | 0.007 | 3.5 | 7 |  |  |  |  |
| COC(=O)NC(C(=O)N1CCC[C@H]1c1ncc(-c2ccc3c(c2)cc2n3C(c3cnc(C4(C)CC4)s3)Oc3cc(-c4cnc([C@@H]5CCCN5C(=O)[C@@H](NC(=O)OC)C(C)C)[nH]4)cc(F)c3-2)[nH]1)C1C[C@@H](C)O[C@@H](C)C1 (single isomer, unassigned) [Compound 462] |  | 3.5 | 0.007 | 3.1 | 7 |  |  | 0.038 |  |
